Counter-ions that a name gives are not always drawn.
What was measured:
[1] = test system: chromaffin granule membrane; assay: ATP transport (uptake of radiolabeled ATP) in chromaffin granule membrane vesicles; assay type: biochemical, cattle; conditions: role: inhibitor, MANT-ATP
Method: (§1) Chromaffin granule membranes were prepared from adrenal glands collected from slaughtered cattle according to Reference A (Nathan Nelson et al., 1988, Chromaffin Granule Proton Pump, Methods in Enzymology, 157, 619-633). Chromaffin granule membranes prepared by sucrose density gradient centrifugation were suspended in 2 ml of SME buffer (20 mM MOPS-tris (pH 7.0), 0.3 M sucrose, 5 mM EDTA, 10 μg/ml leupeptin, and 10 μg/ml pepstatin)+25% glycerol, and the resulting suspension was aliquoted and stored at −80° C. Under these conditions, the ATP transport activity, the V-ATPase activity, and the catecholamine transport activity remain fully active for at least one year.
An ATP transport inhibition experiment for the chromaffin granule membrane was carried out according to Reference B (Yoshinori Moriyama et al., 2022, Is the vesicular nucleotide transporter a molecular target of eicosapentaenoic acid?, Frontiers in Pharmacology, 103389). About 20 μg of chromaffin granule membranes were added to 0.5 ml of measurement buffer (20 mM MOPS-tris (pH 7.0), 0.3 M sucrose, 5 mM potassium chloride, 5 mM magnesium acetate, 5 mM creatine phosphate, 10 units of creatine kinase, and 1 mM 3[H]-ATP [15 KBq/assay]), followed by incubation at 30° C. for 1 hour. Through a Millipore MCE membrane filter with a pore size […], 0.2 ml of the reaction liquid was filtered by suction. Thereafter, the filter was washed with 10 ml of 20 mM MOPS-tris (pH 7.0), 0.3 M sucrose, 5 mM potassium chloride, and 5 mM magnesium acetate, and dissolved in 10 ml of Clear-sol II (manufactured by Nacalai Tesque, Inc.). The radioactivity was then measured using a liquid scintillation counter (N=3).
The reaction was initiated by adding 50 mM ^3[H]-ATP to a final concentration of 1 mM. The 50 mM ^3[H]-ATP was prepared by mixing an ATP-tris solution (manufactured by Sigma-Aldrich) with [2,8-^3H]adenosine triphosphate tetrasodium salt (26.0 Ci/mmol) (manufactured by New England Nuclear). PEP was used as a test reagent, and pyruvic acid was used as a negative control. Five minutes before the addition of ATP, PEP or pyruvic acid, as a solution in 20 mM MOPS-tris (pH 7.0), 0.3 M sucrose, 5 mM potassium chloride, and 5 mM magnesium acetate, was added to the measurement liquid to a final PEP concentration of 0.02, 0.05, 0.1, 0.2, 0.4, or 1 mM, or to a final pyruvic acid concentration of 0.5 or 1 mM.
(§2) Chromaffin granule membrane vesicles were prepared in the same manner as in Example 5, and uptake of radiolabeled ATP into the vesicles was measured. Transport activity of catecholamine (dopamine) and ATP-dependent proton transport by V-ATPase were also measured in the same manner as in Example 5.

[2] = test system: catecholamine transport of chromaffin granule membranes; assay: Catecholamine (dopamine) transport in chromaffin granule membranes; assay type: biochemical, cattle; conditions: role: inhibitor; MANT-ATP, N=3 (FIG. 11)
Method: as §1
A catecholamine transport inhibition experiment was carried out in the same manner as the ATP transport experiment except that the experiment used a measurement liquid containing 20 mM MOPS-tris (pH 7.0), 0.1 M sucrose, 0.1 M potassium chloride, 5 mM magnesium acetate, and about 5 μg of chromaffin granule membranes. To 0.5 ml of the measurement liquid, 2 mM ATP was added, and the resulting mixture was incubated at 30° C. for about 5 minutes, followed by addition of 3[H]-dopamine thereto to a final concentration of 10 μM. After further incubation at 30° C. for 15 minutes, 0.2 ml of the reaction liquid was subjected to suction filtration through a Millipore MCE membrane filter with a pore size of 0.45 μm, and the radioactivity on the filter was measured (N=3). The substrate, 3[H]-dopamine, was prepared by mixing 3,4-[RING-2,5,6-^3H]dihydroxyphenylethylamine (dopamine) (30 Ci/mmol) (manufactured by New England Nuclear) with dopamine hydrochloride (manufactured by LKT Laboratories) such that a final concentration of […] was achieved during the use.
as §2

V-ATPase [3] = biological target: T1, V-ATPase (Bos taurus, UniProt P31404+P31408); assay: ATP-dependent proton transport by V-ATPase (acridine orange fluorescence quenching); assay type: biochemical, cattle
T1 construct: Chromaffin granule membranes were prepared from adrenal glands collected from slaughtered cattle; from tissue; host or cells: cattle adrenal glands, chromaffin granule membranes (sucrose density gradient)
Method: as §1
ATP-dependent proton transport by V-ATPase was measured according to Reference B. Proton transport activity was measured using a spectrofluorometer at excitation wavelength of 492 nm and a fluorescence wavelength 540 nm, wherein fluorescence quenching of acridine orange was used as an index (N=2). The transmembrane potential generated was measured using a spectrofluorometer at an excitation wavelength of 580 nm and a fluorescence wavelength of 630 nm, wherein fluorescence quenching of oxonol-V was used as an index (N=2). The acridine measurement liquid (2 ml) contained 20 mM MOPS-tris (pH 7.0), 0.2 M sucrose, 0.1 M potassium chloride, 5 mM magnesium acetate, 0.2 μg valinomycin, 2 μM acridine orange, and about 20 μg of chromaffin granules. The oxonol-V measurement liquid (2 ml) contained 20 mM MOPS-tris (pH 7.0), 0.3 M sucrose, 5 mM magnesium acetate, 5 μM oxonol-V, and about 20 μg of chromaffin granules.
as §2

[4] = test system: ATP-loaded vesicles of keratinocytes; assay: Accumulation of MANT-ATP in granules of keratinocytes (confocal microscopy); assay type: cell-based, human; conditions: 0.3 mM MANT-ATP, control without imeglimin (FIG. 13)
Method: Keratinocytes were cultured in the same manner as in Example 8. Keratinocytes were cultured at 4×10^4 cells/ml in a glass-bottom dish (35 mm, manufactured by Matsunami Glass Ind., Ltd.) at 37° C. in 5% CO2 for 2 days. The culture medium was then replaced with a medium supplemented with MANT-ATP (manufactured by Invitrogen) at a final concentration of 0.3 mM, and further incubation was performed for 4.5 hours. Subsequently, imeglimin was added thereto to a final concentration of 10 μM, and further incubation was performed at 37° C. in 5% CO2 for 19 hours. Thereafter, the cells were washed twice with HBSS (manufactured by Gibco) and observed using an inverted confocal laser microscope (FV-1000 OSR, manufactured by Olympus Corporation).

[5] = test system: human epidermal keratinocytes; assay: ATP secretion from human epidermal keratinocytes promoted by ionomycin; assay type: cell-based
Method: Human epidermal keratinocytes (Cryopreserved HEK, Lot 1758, Cell Applications Inc.) were cultured using an Epivita Keratinocyte Growth Medium Kit according to the manufacturer's instructions. The procedure was as follows. A supplement medium was added to a hydrocortisone-containing basal medium included in the medium preparation kit to prepare a complete medium. The medium in the dish was removed by aspiration. The cells were washed with 5 ml of BSS (Gbco), and then the BSS was removed by aspiration. After addition of 5 to 6 ml of trypsin/EDTA solution (Gbco), the dish was incubated at 37° C. for 2 minutes. After addition of 5 ml of trypsin neutralization solution, the resulting cell suspension was transferred into two 15-ml Falcon tubes, and centrifuged at 200×g for 5 minutes. The supernatant was removed by aspiration, and the pelleted cell cluster was suspended in 2 ml of the medium at 4.5×10^5 cells/ml. An aliquot of the resulting cell suspension was cryopreserved, while another aliquot was cultured and subjected to measurement.
ATP secretion by human epidermal keratinocytes (hereinafter referred to as “keratinocytes”) was measured. Regarding control solutions, Krebs-Ringer HEPES supplemented with 0.2% BSA and 25 mM glucose (hereinafter also referred to as “Krebs/Iono(−)”) was used as a negative control, and a solution prepared by adding 5 μM ionomycin to this solution (hereinafter also referred to as “Krebs/Iono(+)”) was used as a positive control for ATP secretion. Ionomycin is a Ca^2+ ionophore. Addition of ionomycin to cells is known to promote influx of extracellular Ca^2+ into the cells to increase the intracellular Ca^2+ concentration, resulting in enhancement of ATP secretion. Test solutions were prepared by adding clodronate to Krebs/Iono(−) or Krebs/Iono(+) to a final concentration of 0.1 μM (hereinafter also referred to as “Clo/Iono(−)” or “Clo/Iono(+)”, respectively) (N=3).
Keratinocytes were cultured at 2.5×10^4 cells/well in a 24-well plate at 37° C. in 5% CO2 for 4 days. The medium was removed by aspiration, replaced with Krebs/Iono(−) or Clo/Iono(−), and incubated at 37° C. for 6 hours. These solutions were then removed by aspiration, and the content of each well incubated with Krebs/Iono(−) was replaced with 300 μl of a control solution (Krebs/Iono(−) or Krebs/Iono(+)), while the content of each well incubated with Clo/Iono(−) was replaced with 300 μl of a test solution (Clo/Iono(−) or Clo/Iono(+)). After further incubation at 37° C. for 20 minutes, 200 μl of the supernatant was collected. The collected supernatant was immediately treated on a heat block at 95° C. for 10 minutes, to inactivate ectonucleotidase. ATP in the supernatant was quantified using a Dojindo ATP assay kit−Luminescence (manufactured by Dojindo Laboratories).
Keratinocytes were cultured in the same manner as in Example 1, and ATP secretion from the keratinocytes was measured. Krebs/Iono(−), or a solution prepared by adding 10 μM imeglimin, 0.1 μM eicosapentaenoic acid (EPA), 1 μM EPA, or 10 μM clodronate to Krebs/Iono(−) was used (N=4).
After culturing keratinocytes, the medium was removed by aspiration, and replaced with Krebs/Iono(−), or Krebs/Iono(−) supplemented with 10 μM imeglimin, 0.1 μM EPA, 1 μM EPA, or 10 μM clodronate, followed by incubation for 6 hours. Subsequently, the solution was replaced with either a control solution (Krebs/Iono(−) or Krebs/Iono(+)) or a test solution (Krebs/Iono(+) supplemented with 10 μM imeglimin, 0.1 μM EPA, 1 μM EPA, or 10 μM clodronate), followed by incubation at 37° C. for 20 minutes and then collection of 200 μl of the supernatant. The collected supernatant was immediately treated on a heat block at 95° C. for 10 minutes to inactivate ectonucleotidase. ATP in the supernatant was quantified using a Dojindo ATP assay kit—Luminescence (manufactured by Dojindo Laboratories). […]

[6] = test system: human epidermal keratinocytes; assay: ATP secretion from keratinocytes upon LPS stimulation; assay type: cell-based; conditions: 10 μM, 18 hours, 10 μg/ml LPS, N=8 (FIG. 8)
Method: Keratinocytes were cultured in the same manner as in Example 1. Keratinocytes were cultured at 2.5×10^4 cells/well in a 24-well plate at 37° C. in 5% CO2 for 4 days. The medium was replaced with a test solution (Hanks' balanced salt solution (HBSS) (manufactured by Gibco) supplemented with imeglimin, metformin, or clodronate), and then incubation was performed at 37° C. in 5% CO2 for 18 hours. Thereafter, LPS (10 μg/ml) was added thereto, and incubation was further carried out for 10 minutes, followed by collection of 200 μl of the supernatant. The supernatant was immediately treated on a heat block at 95° C. for 10 minutes, and ATP in the supernatant was quantified using an ATP Assay Kit−Luminescence (manufactured by Dojindo) (N=8).

VNUT = assay: Inhibitory effect on VNUT (data not shown)
V-ATPase [7] = assay: Inhibitory effect on V-ATPase (data not shown)

T1 sequence (P31404 whole entry, looked up): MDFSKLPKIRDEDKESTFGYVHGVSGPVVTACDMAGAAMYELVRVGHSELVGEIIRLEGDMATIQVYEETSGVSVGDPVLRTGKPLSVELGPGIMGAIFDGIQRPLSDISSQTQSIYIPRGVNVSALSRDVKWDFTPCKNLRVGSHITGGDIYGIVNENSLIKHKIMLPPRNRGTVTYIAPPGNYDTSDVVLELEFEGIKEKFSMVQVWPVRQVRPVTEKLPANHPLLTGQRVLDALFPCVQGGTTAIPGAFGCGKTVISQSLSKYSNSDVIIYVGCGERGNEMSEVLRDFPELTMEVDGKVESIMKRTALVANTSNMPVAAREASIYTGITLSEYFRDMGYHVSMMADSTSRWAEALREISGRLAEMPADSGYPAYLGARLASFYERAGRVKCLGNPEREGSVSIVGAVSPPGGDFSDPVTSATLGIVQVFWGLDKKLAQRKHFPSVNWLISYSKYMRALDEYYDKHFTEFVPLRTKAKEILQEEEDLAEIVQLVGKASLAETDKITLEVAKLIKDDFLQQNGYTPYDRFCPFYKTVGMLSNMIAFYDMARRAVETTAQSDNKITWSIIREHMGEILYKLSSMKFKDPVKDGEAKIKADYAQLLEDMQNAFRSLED
T1 sequence (P31408 whole entry, looked up): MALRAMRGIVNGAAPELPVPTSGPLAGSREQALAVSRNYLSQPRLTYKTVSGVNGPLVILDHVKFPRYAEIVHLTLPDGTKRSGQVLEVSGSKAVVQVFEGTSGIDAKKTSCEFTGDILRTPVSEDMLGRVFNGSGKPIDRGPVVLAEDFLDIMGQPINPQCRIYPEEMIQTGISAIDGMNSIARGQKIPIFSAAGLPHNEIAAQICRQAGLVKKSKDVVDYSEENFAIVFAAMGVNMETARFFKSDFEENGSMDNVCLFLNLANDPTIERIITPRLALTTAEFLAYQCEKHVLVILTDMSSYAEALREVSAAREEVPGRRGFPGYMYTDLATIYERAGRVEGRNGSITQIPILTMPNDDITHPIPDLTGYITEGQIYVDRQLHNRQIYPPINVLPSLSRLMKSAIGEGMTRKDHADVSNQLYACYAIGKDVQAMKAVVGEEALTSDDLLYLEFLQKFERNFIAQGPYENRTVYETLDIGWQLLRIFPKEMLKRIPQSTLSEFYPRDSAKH

SMILES | mode of inhibition of ATP transport by VNUT [1] | ATP transport ([1]; radiolabeled ATP, N=3 (FIG. 10)) | IC50 ([1]; radiolabeled ATP, N=3 (FIG. 10), read-out: ID50 of ATP transport) [mM] | effect on catecholamine transport system [2] | effect on ATP-dependent proton transport by V-ATPase (V-ATPase [3]; role: inhibitor, MANT-ATP up to 100 μM, N=1 (FIG. 12)) | quenching of acridine orange fluorescence (V-ATPase [3]; role: substrate, 0.1 mM MANT-ATP) [%] | total acridine orange fluorescence quenching (V-ATPase [3]; role: substrate, 0.1 mM MANT-ATP followed by addition of ATP) [%] | accumulation in the granules in keratinocytes [4] | ATP secretion inhibitory effect at low concentration ([5]; 0.1 μM, 6 h preincubation, ionomycin) | ATP secretion inhibitory effect at higher concentrations ([5]; up to 10 μM metformin) | LPS-stimulated ATP secretion [6] | inhibitory effect on VNUT (VNUT) | inhibitory effect on V-ATPase (V-ATPase [7])
CNc1ccccc1C(=O)O[C@H]1[C@@H](O)[C@H](n2cnc3c(N)ncnc32)O[C@@H]1COP(=O)(O)OP(=O)(O)OP(=O)(O)O [MANT-ATP, 2′/3′-O—(N-methyl-anthraniloyl)-adenosine-5′-triphosphate triethylammonium salt] | competitively inhibits | strongly inhibited ATP transport | ~30 | hardly affected | did not affect | 34 | 61.8 | accumulation of MANT-ATP in the granules | – | – | – | – | –
CN(C)C(=N)NC(=N)N [metformin] | – | – | – | – | – | – | – | – | exhibit an ATP secretion inhibitory effect | decreased inhibitory effect at higher concentrations | almost completely inhibited | neither imeglimin nor metformin exhibited a strong inhibitory effect | neither imeglimin nor metformin exhibited a strong inhibitory effect
